Values after ≈ are worked out from the molar mass of the structure shown.

The assay has as its system Babesia gibsoni. In words: Antibabesial activity against Babesia gibsoni. It is filed as functional, organism-based.
As a reminder, the IC50 is the point on the concentration scale where inhibition reaches its midpoint. Higher therefore signals a need for much substance. `CC(=O)OC(C)(C)/C(C)=C/C(=O)O[C@H]1C(=O)O[C@@H]2C[C@H]3C(C)=C(O)C(=O)C[C@]3(C)[C@H]3[C@@H](O)[C@H](O)[C@@]4(C(=O)O)OC[C@]32[C@@H]14` [BRUCEANTINOL B] came in with an IC50 of 0.978 µg/mL (≈ 1.65 µM).

On to `COC(=O)[C@]12OC[C@]34[C@H]([C@@H](O)[C@@H]1O)[C@@]1(C)CC(=O)C(O)=C(C)[C@@H]1C[C@H]3OC(=O)[C@H](OC(=O)/C=C(\C)C(C)(C)OC(C)=O)[C@@H]24` [BRUCEANTINOL], for which the IC50 was 0.012 µg/mL (≈ 0.0198 µM). The result for `COC(=O)[C@@]12OC[C@]34[C@H]([C@@H](O)[C@@H]1O)[C@@]1(C)CC(=O)C(O)=C(C)[C@@H]1C[C@H]3OC(=O)[C@H](OC(=O)CC(C)C)[C@@H]24` [BRUCEINE A] reads 0.004 µg/mL (≈ 0.00765 µM). With `COC(=O)[C@@]12OC[C@]34[C@H]([C@@H](O)[C@@H]1O)[C@@]1(C)CC(=O)C(O)=C(C)[C@@H]1C[C@H]3OC(=O)[C@H](OC(C)=O)[C@@H]24` [BRUCEINE B], half-maximal inhibition (IC50) was put at 0.893 µg/mL (≈ 1.86 µM). In turn, `COC(=O)[C@]12OC[C@]34[C@H]([C@@H](O)[C@@H]1O)[C@@]1(C)CC(=O)C(O)=C(C)[C@@H]1C[C@H]3OC(=O)[C@H](OC(=O)/C=C(\C)C(C)(C)O)[C@@H]24` [BRUCEINE C] had an IC50 of 0.107 µg/mL (≈ 0.19 µM). The figure for `CC1=CC(=O)[C@@H](O)[C@]2(C)[C@H]3[C@@H](O)[C@H](O)[C@]4(C)OC[C@@]35[C@@H](C[C@@H]12)OC(=O)[C@H](O)[C@]54O` [BRUCEINE D] is 0.835 µg/mL (≈ 2.03 µM). The figure for `CC1=C(O)C(=O)C[C@]2(C)[C@H]3[C@@H](O)[C@H](O)[C@@]4(C(=O)O)OC[C@@]35[C@@H](C[C@@H]12)OC(=O)[C@H](OC(=O)CC(C)C)[C@@H]45` [BRUCEINE J] is 0.742 µg/mL (≈ 1.46 µM). The result for `CC(=O)NCC(=O)O.N=C(N)c1ccc(/N=N/Nc2ccc(C(=N)N)cc2)cc1` [DIMINAZEN ACETURATE] reads 0.103 µg/mL; that for `CC1=CC(=O)[C@@H](O)[C@]2(C)[C@H]3[C@@H](O)[C@H](O)[C@]4(CO)OC[C@@]35[C@@H](C[C@@H]12)OC(=O)[C@H](O)[C@]54O` [YADANZIOLIDE A], 0.216 µg/mL (≈ 0.507 µM).

The values are drawn from ChEMBL document CHEMBL1141310, “Screening of Indonesian medicinal plant extracts for antibabesial activity and isolation of new quassinoids from Brucea javanica” (J Nat Prod, 2007).
